One compound from ChEMBL document CHEMBL1799932, “Antimalarial pyrido[1,2-a]benzimidazoles” (J Med Chem, 2011) can be followed below.

What is called half-life is the time needed for the level to fall by half in the phase considered. As a reminder, the microsomal CLint is the rate of metabolic loss divided by the concentration. A word on the Tmax: it is the time from dosing to the highest level.

Data set [1] can be described thus: Metabolic stability in rat liver microsomes assessed as degradation half life after 60 mins by LC-MS analysis. It is filed as ADME, Microsome. On the technique in general: Microsomes from liver hold many membrane-bound enzymes, among them those of drug oxidation.
In data set [2] the test system is Plasmodium berghei. The data set can be described thus: Antimalarial activity against GFP-transfected Plasmodium berghei strain ANKA infected in NMRI mouse assessed as reduction in parasitemia at 25 mg/kg, po administered as single dose measured on day 2 by FACS analysis. The format is functional. More on the design: scale not given: the % may be the effect or the level left. For orientation: In flow cytometry, cells or beads pass a laser one at a time.

Data set [3] deals with Rattus norvegicus. Kind of data set: Apparent volume of distribution in fasted Sprague-Dawley rat assessed as 1-(2-Diethylaminoethylamino)-3-[4-(trifluoromethyl)phenyl]-pyrido[1,2-a]benzimidazole-4-carbonitrile at 5 mg/kg, iv after 48 hrs by LC-MS analysis. It is filed as ADME, organism-based. More on the design: dose 5 mg/kg, route intravenous. Conditions: in vivo.
Data set [4] can be described thus: Metabolic stability in rat liver microsomes assessed as intrinsic clearance per mg protein after 60 mins by LC-MS analysis. It is filed as ADME, Microsome.
For data set [5], the system named is Plasma. Kind of data set: Plasma protein binding in mouse assessed as 1-(2-Diethylaminoethylamino)-3-[4-(trifluoromethyl)phenyl]-pyrido[1,2-a]benzimidazole-4-carbonitrile at 5 mg/kg, iv after 48 hrs by LC-MS analysis. The format is ADME, organism-based. Further details: dose 5 mg/kg, route intravenous. The settings on record: in vivo.
For data set [6], the system named is Plasmodium berghei. Kind of data set: Antimalarial activity against GFP-transfected Plasmodium berghei strain ANKA infected in NMRI mouse assessed as increase in mean survival time at 50 mg/kg, po administered as single dose (reference value: 5 days ).
Data set [7] relates to Rattus norvegicus. The data set can be described thus: Apparent half life in fasted Sprague-Dawley rat assessed as 1-(2-Diethylaminoethylamino)-3-[4-(trifluoromethyl)phenyl]-pyrido[1,2-a]benzimidazole-4-carbonitrile at 5 mg/kg, iv after 48 hrs by LC-MS analysis. Further details: dose 5 mg/kg, route intravenous. The format is ADME, organism-based. The settings on record: in vivo.

Data set [8] has as its system Rattus norvegicus. Kind of data set: Tmax in fasted Sprague-Dawley rat assessed as 1-(2-Ethylaminoethylamino)-3-[4-(trifluoromethyl)phenyl]- pyrido[1,2-a]benzimidazole-4-carbonitrile level at 20 mg/kg, po after 48 hrs by LC-MS analysis. The format is ADME, organism-based. More on the design: dose 20 mg/kg, route oral. The settings on record: in vivo.
Data set [9] can be described thus: Metabolic stability in mouse liver microsomes assessed as degradation half life after 60 mins by LC-MS analysis. It is filed as ADME, Microsome.
Data set [10] concerns Rattus norvegicus. The data set can be described thus: Drug excretion in fasted Sprague-Dawley rat urine assessed as 1-(2-Ethylaminoethylamino)-3-[4-(trifluoromethyl)phenyl]- pyrido[1,2-a]benzimidazole-4-carbonitrile level at 20 mg/kg, po after 48 hrs by LC-MS analysis. Further details: dose 20 mg/kg, route oral. Conditions: in vivo. It is filed as ADME, organism-based.
Data set [11] deals with Plasmodium berghei. Kind of data set: Antimalarial activity against GFP-transfected Plasmodium berghei strain ANKA infected in NMRI mouse assessed as reduction in parasitemia at 50 mg/kg, po administered as single dose measured on day 4 by FACS analysis. It is filed as functional. More on the design: scale not given: the % may be the effect or the level left.

With `CCN(CC)CCNc1cc(-c2ccc(C(F)(F)F)cc2)c(C#N)c2nc3ccccc3n12.Cl.Cl`, the half-life came to 24.8 min in data set [1] and 24.1 min in data set [9]. The Activity amounted to 13.07% in data set [2], 0.05% in [10] and 59.97% in data set [11]. In addition, in data set [3], the Vz was 18.9 L/kg. Besides, the microsomal CLint in data set [4] was found to be 69.8 µL/min/mg. Further, in data set [5], the PPB is given as 97.9%. Besides, in [6], the MSD is 8 days. The “t1/2(app)” value in [7] was 438 min. The Tmax in data set [8] is 1200 min.
